According to patent US20150359794A1, “IMPAIRMENT OF THE LARGE RIBOSOMAL SUBUNIT PROTEIN RPL24 BY DEPLETION OR ACETYLATION” (Buck Institute for Research on Aging, priority 2014, published 2015):

Tested on: ribosomal proteins
Test: Mass spectrometry of acetylated ribosomal proteins in polysome pellets
Type: cell-based, human
Settings: SKBR3 cells, TSA 1 μM, 2 h or 6 h
Method: Previous studies have shown that pan-inhibitors of class I and II histone deacetylases, like TSA, can rapidly destabilize a number of oncogenic transcripts including HER2 in a cycloheximide-dependent manner (FIG. 9). […] Thus, SKBR3 cells were treated with TSA to evaluate polysome protein acetylation and determine if, similar to RPL24 depletion, histone deacetylase inhibition can affect ribosome assembly dynamics. To detect early (2 h) ribosome or polysome acetylation following histone deacetylase inhibition treatment (1 μM TSA), SKBR3 polysomes were isolated using a discontinuous sucrose gradient as previously described. […]
To prepare polysome samples for mass spectrometry, cells are treated with a histone deacetylase inhibitor and polysome pellets are prepared using a discontinuous sucrose gradient as described above. Protein concentration is determined using the Pierce BCA Protein Assay Kit (Thermo Scientific) and equal amount of protein are trypsin digested. […]
Three biological replicates of polysome or 60S samples are then analyzed by LC-MS/MS using a quadrupole time-of-flight (QqTOF) TripleTOF 5600 mass spectrometer (AB SCIEX, Dublin, Calif.) coupled to an Eksigent (Dublin, Calif.) nanoLC Ultra, 2D plus. […] Quantitative data analysis of acetyl-lysine peptides is performed by integration of selected molecular ion intensities using Skyline MS1 Filtering as previously described. […]

CC(/C=C/C(=O)NO)=C\[C@@H](C)C(=O)c1ccc(N(C)C)cc1 [TSA, trichostatin-A]
number of ribosomal proteins with at least a two-fold induction in acetylation: 15
